Columns and labels:
Type in all cases: biochemical
PDGFβ = PDGFβ (Homo sapiens, UniProt P09619); test: PDGFβ enzyme assay; details: Table IV, amide or urea linker
VEGFR1 = VEGFR1 (Homo sapiens, UniProt P17948); test: VEGFR1 enzyme assay; details: Table IV, amide or urea linker
[1] = biological target: T1, human VEGF receptor (VEGFR-2) (Homo sapiens, UniProt P35968); test: VEGFR2 kinase assay; details: His-VEGFR-2 cytoplasmic domain, 3.6 μM ATP; Table IV, amide or urea linker; read-out: VEGFR2 Enzyme IC50
T1 construct: The cytoplasmic domain of the human VEGF receptor (VEGFR-2) was expressed; His; made in house; host or cells: insect cells (baculovirus)
T1 sequence (P35968 786-1356 limits assumed): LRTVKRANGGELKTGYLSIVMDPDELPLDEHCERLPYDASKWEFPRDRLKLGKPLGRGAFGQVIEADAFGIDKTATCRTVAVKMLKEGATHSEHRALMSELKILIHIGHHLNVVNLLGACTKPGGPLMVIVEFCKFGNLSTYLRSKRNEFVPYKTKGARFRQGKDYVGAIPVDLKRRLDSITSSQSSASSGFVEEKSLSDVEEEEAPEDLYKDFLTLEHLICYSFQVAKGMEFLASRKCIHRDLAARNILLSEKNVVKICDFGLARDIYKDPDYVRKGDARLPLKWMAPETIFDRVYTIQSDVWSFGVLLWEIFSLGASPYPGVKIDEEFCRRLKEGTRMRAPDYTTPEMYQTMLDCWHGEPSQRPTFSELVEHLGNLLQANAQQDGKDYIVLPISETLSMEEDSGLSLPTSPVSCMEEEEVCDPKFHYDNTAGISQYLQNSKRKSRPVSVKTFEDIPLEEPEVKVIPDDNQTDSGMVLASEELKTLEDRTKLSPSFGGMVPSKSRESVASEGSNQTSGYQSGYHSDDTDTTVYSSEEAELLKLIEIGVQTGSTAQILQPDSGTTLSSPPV
Procedure: The cytoplasmic domain of the human VEGF receptor (VEGFR-2) was expressed as a Histidine-tagged fusion protein following infection of insect cells using an H is engineered baculovirus. […] Kinase assays were performed in 96 well microtiter plates that were coated overnight with 30 µg of poly-Glu-Tyr (4:1) in 10 mM Phosphate Buffered Saline (PBS), pH 7.2-7.4. The plates were incubated with 1% BSA and then washed four times with PBS prior to starting the reaction. Reactions were carried out in 120 µL reaction volumes containing 3.6 µM ATP in kinase buffer (50 mM Hepes buffer pH 7.4, 20 mM MgCl2, 0.1 mM MnCl2 and 0.2 mM Na3 VO4). […] Reactions were initiated by the addition 0.5 ng of purified protein. Following a ten minute incubation at 25 degree. […] IC50 values for compound inhibition were calculated directly from graphs of optical density (arbitrary units) versus compound concentration following subtraction of blank values.

PDGFβ, sequence (P09619 33-1106): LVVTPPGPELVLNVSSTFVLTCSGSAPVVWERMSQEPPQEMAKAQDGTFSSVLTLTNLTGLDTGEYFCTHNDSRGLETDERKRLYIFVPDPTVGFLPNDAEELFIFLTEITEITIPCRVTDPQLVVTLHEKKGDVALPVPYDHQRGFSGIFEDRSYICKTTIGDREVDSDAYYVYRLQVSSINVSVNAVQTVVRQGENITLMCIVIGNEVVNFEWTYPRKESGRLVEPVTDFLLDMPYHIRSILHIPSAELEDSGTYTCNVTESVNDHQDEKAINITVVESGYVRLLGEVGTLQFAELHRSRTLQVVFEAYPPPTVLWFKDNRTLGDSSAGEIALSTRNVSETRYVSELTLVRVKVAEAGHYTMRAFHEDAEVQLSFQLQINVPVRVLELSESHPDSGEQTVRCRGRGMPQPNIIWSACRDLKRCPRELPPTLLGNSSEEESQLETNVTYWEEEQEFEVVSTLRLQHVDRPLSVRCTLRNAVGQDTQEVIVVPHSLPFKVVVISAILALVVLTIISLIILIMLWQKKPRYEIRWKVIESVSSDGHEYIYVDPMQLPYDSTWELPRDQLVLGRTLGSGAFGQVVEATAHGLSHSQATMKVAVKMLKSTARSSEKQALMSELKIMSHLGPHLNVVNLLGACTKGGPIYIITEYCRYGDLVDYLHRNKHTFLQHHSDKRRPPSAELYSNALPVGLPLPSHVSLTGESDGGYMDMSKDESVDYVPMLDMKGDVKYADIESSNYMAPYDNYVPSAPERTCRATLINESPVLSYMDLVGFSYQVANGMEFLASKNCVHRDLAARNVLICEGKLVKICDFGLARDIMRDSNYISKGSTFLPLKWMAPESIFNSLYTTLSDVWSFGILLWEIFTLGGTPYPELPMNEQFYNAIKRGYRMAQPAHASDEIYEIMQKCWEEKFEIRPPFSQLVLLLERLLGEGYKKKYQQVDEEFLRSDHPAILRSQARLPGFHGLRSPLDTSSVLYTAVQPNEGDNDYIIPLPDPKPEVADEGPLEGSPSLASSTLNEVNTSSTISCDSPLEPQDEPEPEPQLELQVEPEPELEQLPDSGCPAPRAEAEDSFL
VEGFR1, sequence (P17948 27-1338, species assumed): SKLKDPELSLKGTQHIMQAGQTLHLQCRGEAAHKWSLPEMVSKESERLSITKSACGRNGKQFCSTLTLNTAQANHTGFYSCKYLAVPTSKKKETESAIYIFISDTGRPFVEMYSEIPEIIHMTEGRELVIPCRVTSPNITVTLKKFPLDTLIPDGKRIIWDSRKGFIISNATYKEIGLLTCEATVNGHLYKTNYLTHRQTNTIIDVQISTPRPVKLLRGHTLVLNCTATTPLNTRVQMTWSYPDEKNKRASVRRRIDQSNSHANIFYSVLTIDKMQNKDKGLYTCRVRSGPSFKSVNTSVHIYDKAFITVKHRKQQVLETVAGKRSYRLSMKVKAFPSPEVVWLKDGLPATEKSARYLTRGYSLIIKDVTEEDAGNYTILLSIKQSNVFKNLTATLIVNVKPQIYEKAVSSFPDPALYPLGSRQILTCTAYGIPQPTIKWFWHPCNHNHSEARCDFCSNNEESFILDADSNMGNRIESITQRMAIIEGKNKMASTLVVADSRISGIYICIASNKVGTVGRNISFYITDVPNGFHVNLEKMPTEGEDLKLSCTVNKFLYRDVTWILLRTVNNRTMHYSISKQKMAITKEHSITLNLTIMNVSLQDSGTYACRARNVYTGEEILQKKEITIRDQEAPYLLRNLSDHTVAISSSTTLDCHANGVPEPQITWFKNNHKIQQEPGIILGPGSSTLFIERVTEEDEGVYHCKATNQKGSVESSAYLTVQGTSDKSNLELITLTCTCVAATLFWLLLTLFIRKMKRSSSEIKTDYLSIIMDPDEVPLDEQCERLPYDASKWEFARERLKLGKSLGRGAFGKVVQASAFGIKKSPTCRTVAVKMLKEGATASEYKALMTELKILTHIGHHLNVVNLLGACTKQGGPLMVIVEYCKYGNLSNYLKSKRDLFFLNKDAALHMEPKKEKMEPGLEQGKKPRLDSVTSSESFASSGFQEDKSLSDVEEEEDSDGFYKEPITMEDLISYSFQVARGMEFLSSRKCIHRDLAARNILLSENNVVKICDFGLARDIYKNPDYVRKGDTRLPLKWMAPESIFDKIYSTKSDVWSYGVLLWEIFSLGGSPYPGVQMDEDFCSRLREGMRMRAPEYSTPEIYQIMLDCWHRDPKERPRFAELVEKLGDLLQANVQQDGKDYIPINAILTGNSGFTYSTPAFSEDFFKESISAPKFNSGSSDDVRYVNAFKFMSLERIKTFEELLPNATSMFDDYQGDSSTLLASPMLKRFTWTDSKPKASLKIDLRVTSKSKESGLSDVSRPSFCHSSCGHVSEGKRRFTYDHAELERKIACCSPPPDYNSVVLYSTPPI

Compound	IC50 (PDGFβ) [µM]	IC50 (VEGFR1) [µM]	IC50 [1] [µM]
Cc1ccc(F)c(NC(=O)Nc2ccc(Oc3ccnc(-c4cc(C(=O)NCCCN5CCCC5C(=O)O)c[nH]4)c3)cc2F)c1 (stereo not drawn) [Example 220, 1-(3-{[(5-{4-[3-fluoro-4-({[(2-fluoro-5-methylphenyl)amino]carbonyl}amino)phenoxy]pyridin-2-yl}-1H-pyrrol-3-yl)carbonyl]amino}propyl)pyrrolidine-2-carboxylic acid]	0.023	0.011	0.013
Cc1ccc(F)c(NC(=O)Nc2ccc(Oc3ccnc(-c4cc(C(=O)NCCN)c[nH]4)c3)cc2F)c1 [Example 222, N-(2-aminoethyl)-5-{4-[3-fluoro-4-({[(2-fluoro-5-methylphenyl)amino]carbonyl}amino)phenoxy]pyridin-2-yl}-1H-pyrrole-3-carboxamide]	0.029	0.015	0.009
Cc1ccc(F)c(NC(=O)Nc2ccc(Oc3ccnc(-c4cc(C(=O)NCCCN)c[nH]4)c3)cc2F)c1 [Example 223, N-(3-aminopropyl)-5-{4-[3-fluoro-4-({[(2-fluoro-5-methylphenyl)amino]carbonyl}amino)phenoxy]pyridin-2-yl}-1H-pyrrole-3-carboxamide]	0.016	0.012	0.013
COC(=O)C1CCCN1CCCNC(=O)c1c[nH]c(-c2cc(Oc3ccc(NC(=O)Nc4cc(C)ccc4F)c(F)c3)ccn2)c1 (stereo not drawn) [Example 228, methyl 1-(3-{[(5-{4-[3-fluoro-4-({[(2-fluoro-5-methylphenyl)amino]carbonyl}amino)phenoxy]pyridin-2-yl}-1H-pyrrol-3-yl)carbonyl]amino}propyl)pyrrolidine-2-carboxylate]	0.009	0.008	0.011
Cc1ccc(F)c(NC(=O)Nc2ccc(Oc3ccnc(-c4cc(C(=O)NCCCC(=O)OCC(CO)(CO)CO)c[nH]4)c3)cc2)c1 [Example 234, 3-hydroxy-2,2-bis(hydroxymethyl)propyl 4-{[(5-{4-[4-({[(2-fluoro-5-methylphenyl)amino]carbonyl}amino)phenoxy]pyridin-2-yl}-1H-pyrrol-3-yl)carbonyl]amino}butanoate]	0.017	0.011	0.008
Cc1ccc(F)c(NC(=O)c2ccc(F)c(Oc3ccnc(-c4cc(C(=O)NCCCO)c[nH]4)c3)c2)c1 [Example 244, 5-[4-(2-fluoro-5-{[(2-fluoro-5-methylphenyl)amino]carbonyl}phenoxy)pyridin-2-yl]-N-(3-hydroxypropyl)-1H-pyrrole-3-carboxamide]	0.094	0.031	0.012
Cc1ccc(F)c(NC(=O)Nc2ccc(Oc3ccnc(-c4cc(C(=O)NCCCN5CCCC5C(=O)O)c[nH]4)c3)cc2)c1 (stereo not drawn) [Example 247, 1-(3-{[(5-{4-[4-({[(2-fluoro-5-methylphenyl)amino]carbonyl}amino)phenoxy]pyridin-2-yl}-1H-pyrrol-3-yl)carbonyl]amino}propyl)pyrrolidine-2-carboxylic acid]	0.021	0.025	0.015
COC(=O)CC[C@H](NC(=O)c1c[nH]c(-c2cc(Oc3cc(C(=O)Nc4cc(C)ccc4F)ccc3F)ccn2)c1)C(=O)OC [Example 249, dimethyl 2-[({5-[4-(2-fluoro-5-{[(2-fluoro-5-methylphenyl)amino]carbonyl}phenoxy)pyridin-2-yl]-1H-pyrrol-3-yl}carbonyl)amino]pentanedioate]	0.055	0.046	0.033
Cc1ccc(F)c(NC(=O)Nc2ccc(Oc3ccnc(-c4cc(C(=O)NCCCN)c[nH]4)c3)cc2)c1 [Example 250, N-(3-aminopropyl)-5-{4-[4-({[(2-fluoro-5-methylphenyl)amino]carbonyl}amino)phenoxy]pyridin-2-yl}-1H-pyrrole-3-carboxamide]	0.054	0.008	0.024
Cc1ccc(F)c(NC(=O)Nc2ccc(Oc3ccnc(-c4cc(C(=O)NCCCNC(=O)OC(C)(C)C)c[nH]4)c3)cc2)c1 [Example 251, tert-butyl (3-{[(5-{4-[4-({[(2-fluoro-5-methylphenyl)amino]carbonyl}amino)phenoxy]pyridin-2-yl}-1H-pyrrol-3-yl)carbonyl]amino}propyl)carbamate]	0.079	0.018	0.046
Cc1ccc(F)c(NC(=O)c2ccc(F)c(Oc3ccnc(-c4cc(C(=O)NCCCN)c[nH]4)c3)c2)c1 [Example 252, N-(3-aminopropyl)-5-[4-(2-fluoro-5-{[(2-fluoro-5-methylphenyl)amino]carbonyl}phenoxy)pyridin-2-yl]-1H-pyrrole-3-carboxamide]	0.099	0.025	0.024
Cc1ccc(F)c(NC(=O)c2ccc(F)c(Oc3ccnc(-c4cc(C(=O)NCCCNC(=O)OC(C)(C)C)c[nH]4)c3)c2)c1 [Example 253, tert-butyl {3-[({5-[4-(2-fluoro-5-{[(2-fluoro-5-methylphenyl)amino]carbonyl}phenoxy)pyridin-2-yl]-1H-pyrrol-3-yl}carbonyl)amino]propyl}carbamate]	0.2	0.036	0.064
Cc1ccc(F)c(NC(=O)c2ccc(F)c(Oc3ccnc(-c4cc(C(=O)NCCCN5CCOCC5)c[nH]4)c3)c2)c1 [Example 254, 5-[4-(2-fluoro-5-{[(2-fluoro-5-methylphenyl)amino]carbonyl}phenoxy)pyridin-2-yl]-N-(3-morpholin-4-ylpropyl)-1H-pyrrole-3-carboxamide]	0.035	0.035	0.024
CCNC(=O)[C@H](CCC(=O)O)NC(=O)c1c[nH]c(-c2cc(Oc3cc(C(=O)Nc4cc(C)ccc4F)ccc3F)ccn2)c1 [Example 255, 5-(ethylamino)-4-[({5-[4-(2-fluoro-5-{[(2-fluoro-5-methylphenyl)amino]carbonyl}phenoxy)pyridin-2-yl]-1H-pyrrol-3-yl}carbonyl)amino]-5-oxopentanoic acid]	0.185	0.044	0.028
CCNC(=O)[C@H](CCC(=O)OC(C)(C)C)NC(=O)c1c[nH]c(-c2cc(Oc3cc(C(=O)Nc4cc(C)ccc4F)ccc3F)ccn2)c1 [Example 256, tert-butyl 5-(ethylamino)-4-[({5-[4-(2-fluoro-5-{[(2-fluoro-5-methylphenyl)amino]carbonyl}phenoxy)pyridin-2-yl]-1H-pyrrol-3-yl}carbonyl)amino]-5-oxopentanoate]	0.167	0.024	0.055
Cc1ccc(F)c(NC(=O)c2ccc(F)c(Oc3ccnc(-c4cc(C(=O)N[C@@H](CCC(=O)OC(C)(C)C)C(=O)O)c[nH]4)c3)c2)c1 [Example 257, 5-tert-butoxy-2-[({5-[4-(2-fluoro-5-{[(2-fluoro-5-methylphenyl)amino]carbonyl}phenoxy)pyridin-2-yl]-1H-pyrrol-3-yl}carbonyl)amino]-5-oxopentanoic acid]	0.18	0.018	0.053
Cc1ccc(F)c(NC(=O)c2ccc(F)c(Oc3ccnc(-c4cc(C(=O)NCCC(=O)O)c[nH]4)c3)c2)c1 [Example 258, 3-[({5-[4-(2-fluoro-5-{[(2-fluoro-5-methylphenyl)amino]carbonyl}phenoxy)pyridin-2-yl]-1H-pyrrol-3-yl}carbonyl)amino]propanoic acid]	0.041	0.021	0.036

Source: patent US8906944B2, “Compounds as tyrosine kinase modulators” (Allergan, Inc., priority 2009, dated 2014)
